The values below come from article PMC12279193 (Advanced Science, 2025).

Assay [1] addresses MERS-CoV S-trimer protein (Betacoronavirus England 1, UniProt K9N5Q8). Briefly: biochemical. The class given is binding.
Assay [2] has as its target SARS-CoV S-trimer protein (Severe acute respiratory syndrome-related coronavirus, UniProt P59594). The assay is described as follows: biochemical. The class given is binding.

MERS-CoV S-trimer protein, sequence (K9N5Q8 18-1294 limits assumed): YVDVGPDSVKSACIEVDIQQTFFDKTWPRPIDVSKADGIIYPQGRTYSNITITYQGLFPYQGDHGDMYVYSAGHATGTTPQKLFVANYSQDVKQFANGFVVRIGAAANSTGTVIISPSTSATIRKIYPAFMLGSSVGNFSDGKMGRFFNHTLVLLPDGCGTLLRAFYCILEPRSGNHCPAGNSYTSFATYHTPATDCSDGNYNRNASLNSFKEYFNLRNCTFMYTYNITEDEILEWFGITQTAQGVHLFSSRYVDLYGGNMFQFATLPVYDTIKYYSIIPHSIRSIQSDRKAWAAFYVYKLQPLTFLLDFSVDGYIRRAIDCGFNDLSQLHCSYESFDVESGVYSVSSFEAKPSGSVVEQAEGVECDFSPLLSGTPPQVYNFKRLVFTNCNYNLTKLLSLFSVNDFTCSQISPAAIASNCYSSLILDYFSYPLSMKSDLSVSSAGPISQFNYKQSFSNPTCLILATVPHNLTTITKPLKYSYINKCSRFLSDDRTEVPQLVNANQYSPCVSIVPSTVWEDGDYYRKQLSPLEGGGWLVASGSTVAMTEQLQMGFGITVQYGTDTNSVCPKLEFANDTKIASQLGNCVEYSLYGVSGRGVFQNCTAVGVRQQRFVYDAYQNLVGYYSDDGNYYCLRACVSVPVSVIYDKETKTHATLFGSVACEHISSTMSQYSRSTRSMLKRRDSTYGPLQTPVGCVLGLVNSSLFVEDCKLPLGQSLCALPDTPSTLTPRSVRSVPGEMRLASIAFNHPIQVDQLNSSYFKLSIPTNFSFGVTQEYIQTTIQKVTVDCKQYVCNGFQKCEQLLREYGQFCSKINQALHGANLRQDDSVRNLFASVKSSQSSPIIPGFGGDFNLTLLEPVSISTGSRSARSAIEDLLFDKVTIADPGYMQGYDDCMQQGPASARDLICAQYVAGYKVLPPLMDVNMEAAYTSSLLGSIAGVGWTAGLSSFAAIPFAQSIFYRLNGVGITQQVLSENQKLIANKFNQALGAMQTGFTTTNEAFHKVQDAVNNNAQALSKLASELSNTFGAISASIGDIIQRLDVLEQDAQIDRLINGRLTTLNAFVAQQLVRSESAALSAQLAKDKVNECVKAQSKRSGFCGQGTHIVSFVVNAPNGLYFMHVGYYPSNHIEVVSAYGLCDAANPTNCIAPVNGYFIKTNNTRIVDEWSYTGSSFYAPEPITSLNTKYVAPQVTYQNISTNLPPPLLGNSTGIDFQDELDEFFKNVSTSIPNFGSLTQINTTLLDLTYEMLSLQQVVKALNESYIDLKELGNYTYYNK

Take `CN(/N=C/c1ccccc1C(=O)O)c1nc(-c2ccccc2Cl)cs1` [S416]: the Kd in assay [1] amounted to 55.4 µM; in assay [2] it was 27.2 µM.
